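Dose response: 5 concentrations. Exposure: 48 h. Format: 96-well plates. Endpoint: linear interpolation; highest concentration if not reached. At the GI50, growth is halved. At the TGI there is no net growth.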
How the values were obtained:
Assay in all cases: growth of human tumour cells (NCI), 48 h
[1] = test system: SK-MEL-2 melanoma
[2] = test system: A549 NSCLC
[3] = test system: LOX IMVI melanoma
[4] = test system: SNB-19 CNS
[5] = test system: A498 renal
[6] = test system: SK-MEL-5 melanoma
[7] = test system: MCF7 breast
[8] = test system: RXF 393 renal
[9] = test system: T-47D breast
[10] = test system: NCI/ADR-RES ovarian

SMILES	GI50 [1]	TGI [1]	GI50 [2]	TGI [2]	GI50 [3]	TGI [3]	GI50 [4]	TGI [4]	GI50 [5]	TGI [5]	GI50 [6]	TGI [6]	GI50 [7]	TGI [7]	GI50 [8]	TGI [8]	GI50 [9]	TGI [9]	GI50 [10]	TGI [10]
COc1ccc(-c2nc(-c3nc4ccc(F)cc4[nH]3)c3ccccn23)cc1	10.1 µM	54.8 µM	3.96 µM	28.4 µM	10.8 µM	> 100 µM	11.2 µM	58.6 µM	3.83 µM	31.8 µM	2.2 µM	6.71 µM	6.15 µM	> 100 µM	6.05 µM	45.3 µM	3.55 µM	20.8 µM	6.5 µM	36.5 µM
COc1cc(NC(=O)CCSc2nc3ccc(C)cc3c(=O)n2Cc2ccccc2)cc(OC)c1OC	4.4 µM	27.5 µM	8.08 µM	> 100 µM	6.4 µM	> 100 µM	3.17 µM	18.5 µM	15.8 µM	60 µM	32.4 µM	> 100 µM	32 µM	> 100 µM	3.48 µM	16.6 µM	7.04 µM	> 100 µM	9.25 µM	> 100 µM
Cc1nn2c(/C=C3/C(=O)Nc4cc(Cl)ccc43)c(-c3ccccc3)nc2s1	7.07 µM	46.7 µM	3.28 µM	14.9 µM	2.41 µM	6.02 µM	10.7 µM	> 100 µM	15.5 µM	72 µM	3.17 µM	> 100 µM	5.84 µM	> 100 µM	2.27 µM	5.97 µM	1.75 µM	4.04 µM	3.54 µM	> 100 µM
O=C(Oc1ccc(CO[N+](=O)[O-])cc1)c1ccccc1	0.162 µM	0.322 µM	1.23 µM	2.49 µM	0.163 µM	0.316 µM	0.202 µM	0.706 µM	1.07 µM	2.26 µM	0.474 µM	1.73 µM	0.194 µM	0.722 µM	0.165 µM	0.319 µM	0.137 µM	0.323 µM	0.195 µM	0.434 µM
Cn1cc(-c2ccc3nnc(Sc4ccc5ncccc5c4)n3n2)cn1	48.4 µM	> 100 µM	> 86 µM	> 100 µM	57.8 µM	> 100 µM	47.3 µM	> 100 µM	> 23 µM	> 93.1 µM	> 74.3 µM	> 100 µM	97.5 µM	> 100 µM	26.6 µM	> 100 µM	99.3 µM	> 100 µM	> 100 µM	> 100 µM
C1CC[N-]CC1.CC(=N\O)/C(C)=N/O.CC(=N\O)/C(C)=N/O.OC1[CH-]CCCC1.[Co+2]	23.9 µM	59.7 µM	58.5 µM	> 100 µM	36.4 µM	> 100 µM	> 100 µM	> 100 µM	> 100 µM	> 100 µM	34.6 µM	> 100 µM	38.7 µM	> 100 µM	19.2 µM	62.4 µM	16.5 µM	69.5 µM	> 100 µM	> 100 µM
O=C(c1ccccc1)c1c(NCC(O)CN2CCOCC2)n(Cc2ccccc2)c(=O)n(Cc2ccccc2)c1=O (stereo not given)	> 66.4 µM	> 100 µM	35.7 µM	> 100 µM	38.6 µM	> 100 µM	19.1 µM	> 84.7 µM	27.5 µM	> 88.8 µM	33.4 µM	> 100 µM	48.2 µM	> 100 µM	25.3 µM	> 94 µM	1.69 µM	> 43.3 µM	2.17 µM	> 27.4 µM
COC(=O)COc1ccc(/C=C2/N=C(c3ccccc3)N(c3c(C)n(C)n(-c4ccccc4)c3=O)C2=O)cc1	19.1 µM	38 µM	> 100 µM	> 100 µM	18 µM	32.8 µM	36.3 µM	> 100 µM	26.1 µM	44.1 µM	26 µM	60.7 µM	14.1 µM	32.9 µM	19.4 µM	36.5 µM	21.3 µM	61.2 µM	54.8 µM	> 100 µM
C=C1CCC2(C#N)[C@H]3[C@H](CC[C@@H]2C)[C@@H](C)C[C@@H](CC(C)(C)NC(=O)CN2CCC2=O)[C@H]13 (stereo not given in full)	15.8 µM	35.6 µM	13.3 µM	50.4 µM	6.17 µM	19.7 µM	9.58 µM	48.4 µM	9.03 µM	53.1 µM	4.24 µM	16.2 µM	4.58 µM	23.4 µM	11.5 µM	28 µM	2.49 µM	9.64 µM	11.3 µM	38.4 µM

Source: PubChem BioAssay (NCI)
